System: AML/MDS patients
Assay: Kaplan-Meier OS, EFS, RFS
Type: in vivo, human
Description: Response assessments (peripheral blood and BM) were performed at Cycle 2 Day 1 (pre-dose), Cycle 4 Day 1 (pre-dose) and repeated every 3 cycles thereafter or when clinically indicated. Patients who completed 12 months of study treatment and had not experienced progressive disease (PD) underwent response assessment every 5 cycles until PD was confirmed. Efficacy endpoints were: Objective response rate (ORR), defined as the number of patients with CR, CRi, MLFS, MR or PR divided by the total number of patients in the cohort/group; Disease control rate (DCR), defined as the number of patients with CR, CRi, MLFS, MR, PR or unchanged disease for at least three cycles (considered to have stable disease (SD)) divided by the total number of patients in the cohort/group; Overall survival (OS), defined as (date of death or censoring) – (date of the first study treatment) +1. Censoring date was the last date the patient was known to be alive; Event free survival (EFS), defined as (earliest of date of death, date of progression or date of censoring) – (date of the first study treatment) +1, with event defined as death or progression. Patients who started a new anti-cancer treatment before documented progression were censored at the date of the last assessment prior to start of non-protocol treatment. […] Patients who were alive without documented progression on the last day of contact were censored at the date of the last assessment.
Analyses were performed on response data, AEs, and PK parameters. Subgroup analysis by sex was not performed due to the small number of patients. Statistical analyses were performed using descriptive statistics. The time-to-event variables RFS, EFS, and OS were analyzed using Kaplan-Meier estimates, and median time-to-event was reported alongside its 95% confidence interval (CI). Where relevant, differences between different subgroups for time-to-event endpoints were assessed using a one-tailed log-rank test.

For `Nc1nc(Nc2ccc3c(c2)CC[C@@H](N2CCCC2)CC3)nn1-c1cc2c(nn1)-c1ccccc1CCC2` [Bemcentinib], the “mEFS (95% CI)” value (DE 200/100 mg, N=4) was 4.4 (0.5-NA) months, the “mOS (95% CI)” value (DE 200/100 mg, N=4) was 5.9 (4.4-NA) months and the “mEFS (95% CI)” value (DE 400/100 mg, N=6) was 5.3 (2.6-NA) months. The “mOS (95% CI)” value (DE 400/100 mg, N=6) was 19 (2.6-NA) months, the “mEFS (95% CI)” value (DE 400/200 mg, N=7) was 1.6 (0.7-NA) months and the “mOS (95% CI)” value (DE 400/200 mg, N=7) was 8.6 (0.8-NA) months. For the same compound, the “mEFS (95% CI)” value (DE 600/200 mg, N=14) was 1.2 (0.7-2.1) months, the “mOS (95% CI)” value (DE 600/200 mg, N=14) was 2.5 (1.1-NA) months and the “mOS (95% CI)” value (DE 900/300 mg, N=5) was 6.9 (NA-NA) months. The “mEFS (95% CI)” value (DE overall, N=36) was 2.1 (1.4-2.8) months and the “mOS (95% CI)” value (DE overall, N=36) was 5.3 (2.6-9.1) months.

From article PMC11930985 (Nature Communications, 2025)
